This is an account of results in patent US6211182A, “Imidazole compounds substituted with a six or seven membered heterocyclic ring containing two nitrogen atoms” (Schering Corporation, priority 1999, dated 2001).

The first assay relates to rat.
Assay: not given
Particulars: Clapham et al. 1993; cited from earlier work.
As to `S=C(NC1CCCCC1)N1CCC(c2cnc[nH]2)CC1` [thioperamide], the “short-term memory and reversal learning” value was “can improve short-term memory and reversal learning in the rat”.

A further assay deals with mice.
Assay: not given
The note with it: Yokoyama et al. 1993; cited from earlier work.
For the compound `S=C(NC1CCCCC1)N1CCC(c2cnc[nH]2)CC1` [thioperamide], the “duration of each phase of convulsion” value is recorded as “decreased the duration of each phase of convulsion” and the electroconvulsive threshold result is on record as “raised the electroconvulsive threshold”.

In another assay the target is T1, H3 receptor (Cavia porcellus, UniProt Q9JI35).
T1 construct: The source of the H3 receptors in this experiment was guinea pig brain; from tissue; host or cells: guinea pig brain membranes
T1 sequence (Q9JI35 whole entry): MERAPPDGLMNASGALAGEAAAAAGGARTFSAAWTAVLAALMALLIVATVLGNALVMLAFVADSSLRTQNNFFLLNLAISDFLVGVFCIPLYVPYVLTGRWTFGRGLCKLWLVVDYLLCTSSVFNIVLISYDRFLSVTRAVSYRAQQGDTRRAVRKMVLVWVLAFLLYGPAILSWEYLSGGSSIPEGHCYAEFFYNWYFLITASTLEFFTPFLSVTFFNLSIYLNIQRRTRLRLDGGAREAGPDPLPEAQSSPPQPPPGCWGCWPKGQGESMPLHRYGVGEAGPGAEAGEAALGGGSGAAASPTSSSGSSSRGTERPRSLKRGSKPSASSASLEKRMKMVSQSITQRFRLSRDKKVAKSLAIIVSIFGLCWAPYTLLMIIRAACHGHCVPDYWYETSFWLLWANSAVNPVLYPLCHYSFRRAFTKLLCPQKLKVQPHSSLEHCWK
Briefly: H3 Receptor Binding Assay (guinea pig brain membranes, [3H]R-α-methylhistamine or [3H]-N-methylhistamine). The note with it: 3 nM radioligand, 30° C., 30 min. As to the method: Procedure for H3 Receptor Binding Assay
The source of the H3 receptors in this experiment was guinea pig brain. The animals used weighed 400-600 g. The tissue was homogenized using a Polytron in a solution of 50 mM Tris, pH 7.5. The final concentration of tissue in the homogenization buffer was 10% w/v. The homogenates were centrifuged at 1000×g for 10 min. in order to remove clumps of tissue and debris. The resulting supernatants were then centrifuged at 50,000×g for 20 min. in order to sediment the membranes, which were next washed 3 times in homogenization buffer (50,000×g for 20 min. each). The membranes were frozen and stored at -70° C. until needed.
All compounds to be tested were dissolved in DMSO and then diluted into the binding buffer (50 mM Tris, pH 7.5) such that the final concentration was 2 μg/mL with 0.1% DMSO. Membranes were then added (400 μg of protein) to the reaction tubes. The reaction was started by the addition of 3 nM [^3 H]R-α-methylhistamine (8.8 Ci/mmol) or [^3 H]-N-methylhistamine (80 Ci/mmol) and incubated at 30° C. for 30 min. Bound ligand was separated from unbound ligand by filtration, and the amount of radioactive ligand bound to the membranes was quantitated by liquid scintillation spectrometry. All incubations were performed in duplicate and the standard error was less than 10% in all instances.
Take `O=C(/C=C/c1cccnc1)N1CCN(CCCCc2c[nH]cn2)CC1`: affinity was put at a Ki of 25 nM.

With `O=C(Nc1cccc(Cl)c1)N1CCN(CCCCc2c[nH]cn2)CC1`, the Ki (commonly the equilibrium dissociation constant of an inhibitor or competing ligand from its target) stood at 6 nM.

`O=C(NCCCCCc1c[nH]cn1)C1CNCCN1` (stereo not drawn): the affinity corresponds to a Ki of 39 nM.

On to `O=C(NCCCCc1c[nH]cn1)C1CNCCN1Cc1ccc(Cl)cc1` (stereo not drawn), for which the affinity corresponds to a Ki of 38 nM.

`Clc1ccc(CN2CCN(Cc3ccc(Cl)cc3)C(CCc3c[nH]cn3)C2)cc1` (stereo not drawn): the Ki turned out to be 45 nM.

In turn, `O=C(NCCCCc1c[nH]cn1)C1CN(Cc2ccc(Cl)cc2)CCN1` (stereo not drawn) gave a Ki of 46 nM.

`O=C(NCCCCc1c[nH]cn1)C1CN(Cc2ccc(Cl)cc2)CCN1Cc1ccc(Cl)cc1` (stereo not drawn) showed a Ki of 20 nM. Against the preceding compound, the Ki is about 2.3-fold lower.

`CCOC(=O)C1CN(CCCCc2c[nH]cn2)CCN1Cc1ccc(Cl)cc1` (stereo not drawn) had a Ki of 46 nM.

As to `O=C(Nc1ccc(C(F)(F)F)cc1)N1CCN(CCCCc2c[nH]cn2)CC1`, the inhibitory constant (Ki) was found to be 14 nM.

`CCOC(=O)C1CNCCN1CCCCc1c[nH]cn1` (stereo not drawn) returned a Ki of 32 nM.

Take `O=C(/C=C/c1ccccc1)N1CCN(CCCCc2c[nH]cn2)CC1`: the affinity corresponds to a Ki of 6 nM.

The assay is the same for the next values; noted with them: unit given as mM.
In turn, `CCOC(=O)C1CN(Cc2ccc(Cl)cc2)CCN1CCCCc1c[nH]cn1` (stereo not drawn) registered an inhibition constant (Ki) of 26 nM.
